Results: PMC3113701 (Nature communications, 2010)
In brackets after ≈: the same amount, converted by molar mass. Entries after “also recorded” stand apart in the source; their conditions may differ. Like-named read-outs stand apart in the source and are kept apart here.

Columns and labels:
[1] = Maximum solubility by nephelometer; format: physicochemical; details: kinetic from dmso stock
[2] = target: T1, NR1/NR2D receptors (Rattus norvegicus, UniProt Q62645); assay: Two-electrode voltage-clamp, recombinant NR1/NR2D in Xenopus oocytes; format: cell-based; details: for Slope: Control (no CIQ)
[3] = system: 2A-(2D L+S1M1c) chimeric receptor; assay: Oocyte recording of chimera 2A-; format: cell-based, rat; details: 10 μM CIQ plus 100 μM glutamate and 30 μM glycine
[4] = system: NR1/NR2A*/NR2B triheteromeric receptors; assay: Triheteromeric NMDA receptors in oocytes, NR1/NR2A*/NR2B; details: 10 μM CIQ; 10 mM glutamate, 100 μM glycine, 1 mM Mg2+
[5] = system: 2A-(2D L+S1M1) chimeric receptor; assay: Oocyte recording of chimera 2A-; format: cell-based, rat; details: 10 μM CIQ plus 100 μM glutamate and 30 μM glycine
[6] = system: AMPA (GluR1) receptor; assay: Two-electrode voltage-clamp, AMPA receptor GluR1 in oocytes; format: cell-based; details: 10 μM CIQ, 100 μM glutamate
[7] = system: NR1/NR2A*/NR2D triheteromeric receptors; assay: Triheteromeric NMDA receptors in oocytes, NR1/NR2A*/NR2D; details: 10 μM CIQ; 10 mM glutamate, 100 μM glycine, 1 mM Mg2+
[8] = system: GluR5 receptor; assay: Two-electrode voltage-clamp, GluR5 in oocytes; format: cell-based; details: 10 μM CIQ; 100 μM glutamate; concanavalin-A pretreated oocytes
[9] = target: T1, NR1/NR2D receptors; assay: Whole-cell voltage-clamp, NR1/NR2D in HEK 293 cells; format: cell-based
[10] = system: NR1/NR2A receptors; assay: Two-electrode voltage-clamp, recombinant NR1/NR2A in Xenopus oocytes; format: cell-based, rat
[11] = system: NR2A-(2D L+M1e) chimeric receptor; assay: Oocyte recording of chimera NR2A-; format: cell-based, rat; details: 10 μM CIQ plus 100 μM glutamate and 30 μM glycine
[12] = system: NR2A with residues 590-594 of NR2D; assay: Oocyte recording of NR2A with NR2D residues 590-594 alone; format: cell-based, rat; details: oocytes
[13] = system: 2A-(2D L+S1M1M2M3S2) chimeric receptor; assay: Oocyte recording of chimera 2A-; format: cell-based, rat; details: 10 μM CIQ plus 100 μM glutamate and 30 μM glycine
[14] = system: 2A-(2D L+S1M1b) chimeric receptor; assay: Oocyte recording of chimera 2A-; format: cell-based, rat; details: 10 μM CIQ plus 100 μM glutamate and 30 μM glycine
[15] = target: NR1/NR2C receptors (Rattus norvegicus, UniProt P35439+Q00961); assay: Whole-cell voltage-clamp, NR1/NR2C in HEK 293 cells; format: cell-based
[16] = target: T2, NR1/NR2C receptors (Rattus norvegicus, UniProt Q00961); assay: as above; format: cell-based
[17] = target: T1, NR1/NR2D receptors; assay: Single channel recording, outside-out patches with NR1/NR2D; format: cell-based; details: 10 μM CIQ
[18] = system: NR1/NR2A* receptors; assay: Oocyte recording of NR1/NR2A*; details: oocytes; triheteromeric recording conditions
[19] = system: native NMDA receptors in subthalamic neurons; format: cell-based, rat
[20] = system: NR1/NR2A*/NR2C triheteromeric receptors; assay: Triheteromeric NMDA receptors in oocytes, NR1/NR2A*/NR2C; details: 10 μM CIQ; 10 mM glutamate, 100 μM glycine, 1 mM Mg2+
[21] = system: NR1/NR2A receptors; assay: Whole-cell voltage-clamp, NR1/NR2A in HEK 293 cells; format: cell-based, rat; details: concentration-effect relationship
[22] = system: NR2A(I567T) with linker (L) between NR2D ATD and S1; assay: Oocyte recording of NR2A; format: cell-based, rat; details: 10 μM CIQ; oocytes
[23] = system: GluR4 receptor; assay: Two-electrode voltage-clamp, GluR4 in oocytes; format: cell-based; details: 10 μM CIQ, 100 μM glutamate
[24] = system: NR1/NR2D(T592I); assay: Oocyte recording of mutant NR1/NR2D; format: cell-based, rat; details: oocytes
[25] = system: native NMDA receptors in CA1 hippocampal pyramidal neurons; format: cell-based, rat; details: 20 μM CIQ; pressure-applied NMDA and glycine
[26] = system: NR1/NR2B receptors; assay: Whole-cell voltage-clamp, NR1/NR2B in HEK 293 cells; format: cell-based, rat; details: 20 μM CIQ
[27] = system: GluR3 receptor; assay: Two-electrode voltage-clamp, GluR3 in oocytes; format: cell-based; details: 10 μM CIQ, 100 μM glutamate
[28] = system: NR2A with ATD-S1 linker (L) of NR2D; assay: Oocyte recording of NR2A with NR2D ATD-S1 linker; format: cell-based, rat; details: oocytes
[29] = system: NR1/NR2B receptors; assay: Two-electrode voltage-clamp, recombinant NR1/NR2B in Xenopus oocytes; format: cell-based, rat
[30] = system: GluR2 receptor; assay: Two-electrode voltage-clamp, GluR2 in oocytes; format: cell-based; details: 10 μM CIQ, 100 μM glutamate
[31] = system: kainate (GluR6) receptor; assay: Two-electrode voltage-clamp, kainate receptor GluR6 in oocytes; format: cell-based; details: 10 μM CIQ; 100 μM glutamate; concanavalin-A pretreated oocytes
[32] = system: 2D-(2A L) chimeric receptor; assay: Oocyte recording of chimera 2D-; format: cell-based, rat; details: oocytes
[33] = system: 2D-(2A ATD+L) chimeric receptor; assay: Oocyte recording of chimera 2D-; format: cell-based, rat; details: oocytes
[34] = target: T2, NR1/NR2C receptors; assay: Two-electrode voltage-clamp, recombinant NR1/NR2C in Xenopus oocytes; format: cell-based; details: for Slope: Control (no CIQ)
[35] = system: NMDA receptors containing the NR2C or NR2D subunit; assay: Potentiation of NR2C- or NR2D-containing NMDA receptors; format: cell-based; details: read-out: EC50 for enhancement of receptor responses; abstract summary value
[36] = 10 μM CIQ plus 100 μM glutamate and 30 μM glycine
[37] = 10 μM CIQ in 100 μM glutamate and 30 μM glycine, HEK 293, 23°C
[38] = HEK 293 cells, single exponential
[39] = following pre-application of CIQ, HEK 293
[40] = read-out: agonist EC50, + 20 μM CIQ
[41] = read-out: agonist EC50, Control (no CIQ)

T2 sequence (Q00961 20-1237, other chains not shown): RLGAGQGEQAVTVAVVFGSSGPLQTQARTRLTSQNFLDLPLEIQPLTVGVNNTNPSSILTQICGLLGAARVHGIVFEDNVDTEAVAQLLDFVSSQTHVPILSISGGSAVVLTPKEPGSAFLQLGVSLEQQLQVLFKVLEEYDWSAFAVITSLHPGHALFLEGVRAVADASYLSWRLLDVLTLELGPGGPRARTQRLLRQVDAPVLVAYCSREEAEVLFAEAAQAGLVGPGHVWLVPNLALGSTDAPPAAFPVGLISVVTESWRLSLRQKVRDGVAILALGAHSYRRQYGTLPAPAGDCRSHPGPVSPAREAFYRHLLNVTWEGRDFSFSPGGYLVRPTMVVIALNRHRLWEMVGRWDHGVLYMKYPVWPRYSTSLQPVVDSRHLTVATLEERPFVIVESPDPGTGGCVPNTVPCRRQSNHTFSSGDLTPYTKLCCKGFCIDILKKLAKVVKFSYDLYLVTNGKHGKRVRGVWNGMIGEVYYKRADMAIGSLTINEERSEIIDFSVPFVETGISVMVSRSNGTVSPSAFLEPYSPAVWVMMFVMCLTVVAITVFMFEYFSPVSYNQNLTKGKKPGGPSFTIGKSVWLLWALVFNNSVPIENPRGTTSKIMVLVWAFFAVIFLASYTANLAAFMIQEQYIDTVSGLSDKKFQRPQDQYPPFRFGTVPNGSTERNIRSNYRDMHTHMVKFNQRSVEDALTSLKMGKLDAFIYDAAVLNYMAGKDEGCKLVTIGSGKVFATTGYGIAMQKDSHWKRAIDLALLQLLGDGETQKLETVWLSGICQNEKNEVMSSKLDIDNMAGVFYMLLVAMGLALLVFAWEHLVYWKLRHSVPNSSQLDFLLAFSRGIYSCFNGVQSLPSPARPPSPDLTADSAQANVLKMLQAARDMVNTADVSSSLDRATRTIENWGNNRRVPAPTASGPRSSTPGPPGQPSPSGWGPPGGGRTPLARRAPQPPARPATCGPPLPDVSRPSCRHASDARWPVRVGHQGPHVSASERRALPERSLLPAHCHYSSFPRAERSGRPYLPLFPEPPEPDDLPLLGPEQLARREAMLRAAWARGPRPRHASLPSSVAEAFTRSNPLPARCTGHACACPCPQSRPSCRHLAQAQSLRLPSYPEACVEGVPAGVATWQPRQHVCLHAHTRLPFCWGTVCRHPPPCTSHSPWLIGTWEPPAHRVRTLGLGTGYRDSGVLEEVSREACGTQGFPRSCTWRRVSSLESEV
T1 sequence (Q62645 28-1323, other chains not shown): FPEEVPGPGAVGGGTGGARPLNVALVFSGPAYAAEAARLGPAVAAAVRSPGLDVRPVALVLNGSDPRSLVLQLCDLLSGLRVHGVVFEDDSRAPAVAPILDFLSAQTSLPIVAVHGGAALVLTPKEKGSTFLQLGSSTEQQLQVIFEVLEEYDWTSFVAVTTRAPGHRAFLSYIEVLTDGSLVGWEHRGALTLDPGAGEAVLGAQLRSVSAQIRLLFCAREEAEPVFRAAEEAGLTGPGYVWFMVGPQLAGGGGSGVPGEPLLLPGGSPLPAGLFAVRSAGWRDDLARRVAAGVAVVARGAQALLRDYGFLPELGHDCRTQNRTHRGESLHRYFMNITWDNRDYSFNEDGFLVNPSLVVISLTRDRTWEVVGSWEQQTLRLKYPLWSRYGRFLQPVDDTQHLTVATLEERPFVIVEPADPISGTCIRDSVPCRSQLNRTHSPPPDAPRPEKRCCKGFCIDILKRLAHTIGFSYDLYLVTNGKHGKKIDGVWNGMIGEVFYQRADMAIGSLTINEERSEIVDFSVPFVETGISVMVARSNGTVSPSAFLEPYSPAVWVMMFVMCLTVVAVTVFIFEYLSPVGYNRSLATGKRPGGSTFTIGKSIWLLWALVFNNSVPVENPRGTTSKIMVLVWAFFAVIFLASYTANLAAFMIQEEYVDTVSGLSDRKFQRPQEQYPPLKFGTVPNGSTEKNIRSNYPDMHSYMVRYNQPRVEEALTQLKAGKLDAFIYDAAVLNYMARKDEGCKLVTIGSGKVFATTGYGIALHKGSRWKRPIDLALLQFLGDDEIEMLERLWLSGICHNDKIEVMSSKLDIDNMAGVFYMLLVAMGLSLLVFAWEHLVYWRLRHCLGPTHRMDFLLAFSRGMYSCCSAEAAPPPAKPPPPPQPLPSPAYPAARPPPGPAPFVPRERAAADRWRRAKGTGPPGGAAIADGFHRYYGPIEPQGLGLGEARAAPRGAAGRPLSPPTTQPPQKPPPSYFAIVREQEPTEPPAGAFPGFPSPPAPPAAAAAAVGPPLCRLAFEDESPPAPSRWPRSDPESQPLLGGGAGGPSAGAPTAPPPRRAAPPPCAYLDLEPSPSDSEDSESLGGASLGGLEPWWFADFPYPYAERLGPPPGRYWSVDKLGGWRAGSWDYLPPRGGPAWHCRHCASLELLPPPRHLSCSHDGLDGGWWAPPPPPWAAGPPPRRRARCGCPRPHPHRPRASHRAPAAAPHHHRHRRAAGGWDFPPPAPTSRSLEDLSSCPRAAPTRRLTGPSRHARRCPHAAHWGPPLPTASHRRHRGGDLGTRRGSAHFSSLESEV
Chain of NR1/NR2C receptors (Rattus norvegicus, UniProt P35439+Q00961) (Q00961 20-1237, other chains not shown): as the sequence (Q00961 20-1237, other chains not shown) above

## COc1ccc(OCC2c3cc(OC)c(OC)cc3CCN2C(=O)c2cccc(Cl)c2)cc1 (stereo not drawn) [CIQ, (3-chlorophenyl)(6,7-dimethoxy-1-((4-methoxyphenoxy)methyl)-3,4-dihydroisoquinolin-2(1H)-yl)methanone]
[1]
  solubility: 20 µM (≈ 9.36 µg/mL)
[2]; [36]
  response in the presence of CIQ vs control: significantly different than in control
[2]; 100 μM NMDA and 30 μM glycine
  potentiation of NMDA-activated response: 205 ± 5%
[2]; CIQ alone
  effect of CIQ alone (no agonist): no effect
[2]; CIQ dissolved in 2-hydroxypropyl-beta-cyclodextrin solution (1% w/v), no DMSO
  potentiation of receptor response, % of control: 144 ± 3 % of control
[2]; response without CIQ = 100%
  maximal potentiation: 211 ± 7%
[3]
  CIQ sensitivity of chimeric receptor: CIQ sensitivity is observed
[4]
  effect on triheteromeric receptor response: not potentiated; also recorded: no effect
[5]
  CIQ sensitivity of chimeric receptor: CIQ sensitivity is observed
[6]
  effect on receptor response: did not alter; also recorded: not significantly different than control
[7]
  effect on triheteromeric receptor response: significantly potentiated
[8]
  effect on receptor response: not significantly different than control
[9]; [37]
  response compared to control: 180%
[9]; 10 μM CIQ, 33°C, HEK 293 cells
  potentiation of response to NMDA at 33°C: 200±20%
[9]; HEK 293 cells
  maximal potentiation: 180%
[9]; [38]
  de-potentiation time constant tau: 6.5 ± 0.7 s
[9]; [39]
  10-90% rise time of receptor response: 15 ± 2 ms
[10]; 10 μM CIQ
  effect on receptor response: did not alter; also recorded: without affecting
[10]; 100 μM NMDA plus 30 μM glycine
  potentiation of NMDA-activated response: did not potentiate
[11]
  CIQ sensitivity of chimeric receptor: potentiated; also recorded: CIQ sensitivity is observed
[12]
  CIQ activity at chimeric receptor: did not show any activity
[13]
  CIQ sensitivity of chimeric receptor: CIQ sensitivity is observed
[14]
  CIQ sensitivity of chimeric receptor: CIQ sensitivity is observed
[15]
  EC50: 1700 nM
[16]; [37]
  response compared to control: 180%
[16]; HEK 293 cells
  maximal potentiation: 180%
[16]; [38]
  de-potentiation time constant tau: 4.0 ± 0.7 s
[16]; [39]
  10-90% rise time of receptor response: 9 ± 1 ms
[17]
  effect on the reversal potential: no detectable effect
  mean shut time, % of control: 75 ± 8 % of control
[17]; composite of 6 patches
  closed duration area, component 1: 37
  closed duration area, component 2: 18
  closed duration area, component 3: 12
  closed duration area, component 4: 18
  closed duration area, component 5: 15
  closed duration area, component 6: 0.75
  closed duration time constant, component 1: 0.026 ms
  closed duration time constant, component 2: 0.23 ms
  closed duration time constant, component 3: 0.73 ms
  closed duration time constant, component 4: 3.4 ms
  closed duration time constant, component 5: 12 ms
  closed duration time constant, component 6: 39 ms
  open period time constant 1, composite distribution: 0.036 ms
  open period time constant 2, composite distribution: 0.63 ms
[18]
  effect on receptor response: no detectable effect; also recorded: not potentiated
[19]; 20 μM CIQ bath applied, −60 mV, 0.2 mM Mg2+
  potentiation of NMDA-activated responses compared to control: 230 ± 29%
[19]; after washout of 20 μM CIQ
  NMDA-activated response after wash, of control amplitude: 102 ± 11%
[20]
  effect on triheteromeric receptor response: significantly potentiated
[21]
  effect on receptor response: no effect
[22]
  potentiation of mutant receptor response: 135 ± 5%
[23]
  effect on receptor response: not significantly different than control
[24]
  CIQ potentiation of mutant receptor: completely abolished; also recorded: no longer potentiated
[25]
  potentiation of NMDA-activated responses: did not potentiate
[26]
  reduction in the response: 25%
[27]
  effect on receptor response: not significantly different than control
[28]
  CIQ activity at chimeric receptor: did not show any activity
[29]; 10 μM CIQ
  effect on receptor response: did not alter; also recorded: without affecting
[29]; 100 μM NMDA plus 30 μM glycine
  potentiation of NMDA-activated response: did not potentiate
[30]
  effect on receptor response: not significantly different than control
[31]
  effect on receptor response: did not alter; also recorded: not significantly different than control
[32]
  change of CIQ potentiation vs NR2D: did not significantly alter
[33]
  change of CIQ potentiation vs NR2D: attenuated; also recorded: reduced level of potentiation
[34]; [36]
  response in the presence of CIQ vs control: significantly different than in control
[34]; 100 μM NMDA and 30 μM glycine
  potentiation of NMDA-activated response: 233 ± 13%
[34]; CIQ alone
  effect of CIQ alone (no agonist): no effect
[34]; response without CIQ = 100%
  maximal potentiation: 197 ± 20%
[35]
  EC50: 3000 nM

## N[C@@H](CCC(=O)O)C(=O)O [Glutamate, reference compound]
[2]
  Slope: 1.5
[2]; [40]
  EC50: 240 ± 20 nM
[2]; [41]
  EC50: 300 ± 30 nM
[34]
  Slope: 1.5
[34]; [40]
  EC50: 620 ± 40 nM
[34]; [41]
  EC50: 740 ± 60 nM

## NCC(=O)O [Glycine, reference compound]
[2]
  Slope: 1.5
[34]
  Slope: 1.5
